In assay [1] the test system is plant male sterility caused by high temperatures. The note with it: in vivo; cited from earlier work.
Another assay concerns SLAPX. Nature of the assay: Example 3: expression of heat stress tolerance-related gene SLAPX (real-time PCR). The settings on record: 5 mM Val; 10 μM IAA; 50 μM PAA; combinations 5 mM Val + 10 μM IAA, 5 mM Val + 50 μM PAA; 24 hours after spraying; n=3; relative to Actin. It is filed as in vivo, tomato (cultivar: Regina). As for the experimental part:
(§1) Plants of tomato (cultivar: Regina) were used in evaluation of the genes.
(§2) Two tomato seeds were sown in a slit pot having a diameter of 10.5 cm (10.5 cm (top diameter)×8.8 cm (height)) filled with potting soil, and cultivated in a biotron at a temperature of 23 °C, with a light period of 14 hours (6:00 to 20:00) and a dark period of 10 hours (20:00 to 6:00). As the potting soil, a mixture of Kumiai Nippi Engei Baido No. 1 (Nihon Hiryo Co., Ltd.) and vermiculite at 3:1 (volume ratio) was used. After one week, thinning was performed to leave one plant, and cultivation was continued.
(§3) The material was dissolved in water before use. Twenty-five days after the sowing, 0.1% spreading agent “Approach BI” (Kao Corporation) was added to the material treatment solution, and the resulting solution was sprayed over the entire plant. For each treatment group, three tomato plants were used, and 2 mL of the treatment solution per plant was sprayed. Twenty-four hours after the spraying, a 1.5 cm×1.5 cm section was collected as a sample from the second true leaf.
(§4) From each leaf sample collected from tomato, RNA was extracted using a Maxwell™ RSC Plant RNA Kit (Promega) according to the manufacturer's instructions. Subsequently, single-stranded cDNA was synthesized from the extracted RNA using a ReverTra Ace™ qPCR RT Master Mix (TOYOBO). As genes associated with heat stress tolerance in tomato, the following two genes were evaluated: Heat shock factor A2 (HsFA2) and Ascorbate peroxidases (APX). Using the above cDNA as a template, real-time PCR was performed using the primers shown in Table 6, and the expression level of each gene was calculated as a relative expression level with respect to the Actin gene.
(Real-time PCR tracks product formation cycle by cycle.)

The test system of another assay is SLHsFA2. Nature of the assay: Example 3: expression of heat stress tolerance-related gene SLHsFA2 (real-time PCR). Format: in vivo, tomato (cultivar: Regina). The note with it: 5 mM Val; 10 μM IAA; 50 μM PAA; combinations 5 mM Val + 10 μM IAA, 5 mM Val + 50 μM PAA; 24 hours after spraying; n=3; relative to Actin. How it is done: as §1, §2, §3, §4
Assay [2] deals with tomato. Nature of the assay: Example 1: heat stress tolerance of tomato (number of fruits) with Val and/or IAA. It is filed as in vivo, cultivar Regina. The settings on record: heat stress max 35 °C; foliar spray; Val 5 mM or 10 mM; IAA 10 μM; Val 5 mM & IAA 10 μM. How it is done:
In the present Example, Val (valine) and IAA (indole-3-acetic acid) were applied to tomato either alone or in combination, and heat stress tolerance-inducing effects were evaluated.
• Tomato: cultivar Regina
Two tomato seeds were sown in a pot (Sakata) having a soil diameter of 10.5 cm and containing 350 g of a mixed soil of potting soil (Kumiai No. 1) and vermiculite (potting soil:vermiculite=3:1 (v:v)). Two weeks later, the tomato plants were thinned to leave one plant. Thirty-five days after the sowing, soil fertilization was performed with 100 mL of a 500-fold diluted Hyponex solution. Water supplementation was performed as appropriate.
The non-heat stress treatment+water treatment group (No. 1) was used as a positive control. The heat stress treatment groups included five treatment groups (Nos. 2 to 6). The material treatment and the heat treatment were performed in two separate sets. The first set of material treatment was performed 40 days after the sowing, when flowering of the tomato plants had started. The second set of material treatment was performed 46 days after the sowing. The material treatment was performed by preparing an aqueous material solution containing 0.1% spreading agent “Approach BI”, and performing foliar spraying. To each tomato plant, 6 mL of the aqueous material solution was sprayed. […]

Assay [3] has as its system tomato. Nature of the assay: Example 4: tomato pot test, harvested fruit weight under heat stress. It is filed as in vivo, tomato: Home Momotaro, rootstock (Boranchi). The settings on record: PAA 10 μM, Val 5 mM, PAA higher than Val. How it is done: • Tomato: Home Momotaro, rootstock (Boranchi).
Sandy loam (SL) was filled into a planter at 0.18 m^2/planter, and two tomato plants were planted therein. As a fertilizer, OK-F-1 (OAT Agrio Co., Ltd.) was used. The fertilizer was diluted 2000-fold with water, and applied as appropriate at 2000 mL/plant/application. Topping was performed with one leaf left above the fourth truss, and axillary buds were removed as appropriate. Cultivation was performed in a glasshouse under natural light.
Five treatment groups were evaluated (Table 7). The water-treated non-heat stress treatment group was used as a positive control. The other four treatment groups were subjected to heat treatment. The heat treatment was performed twice. The first treatment was performed for 10 days at the pre-flowering stage of the first truss, and the second treatment was performed for 10 days at the flowering stage of the fourth truss. The heat treatment was performed by opening and closing side windows and roof windows of the glasshouse (with a target maximum temperature of 35 °C in the glasshouse).
The material was applied by spraying onto stems and leaves at 50 mL per plant on the start day of the heat treatment and three days thereafter. To each material, a spreading agent (Approach BI (Kao)) was added to a final concentration of 0.05%.
Harvesting and examination were performed 11 times until the fourth truss matured. […]

The test system of assay [4] is tomato. Nature of the assay: Example 2: heat stress tolerance of tomato (number and weight of fruits) with Val and/or PAA. Format: in vivo, cultivar Regina. The note with it: Val 5 mM, PAA 10 μM. As for the experimental part: In the present Example, Val (valine) and PAA (phenylacetic acid) were applied to tomato plants individually or in combination, and their heat stress tolerance-inducing effects were evaluated.
Same as in Example 1, except that the five treatment groups shown in Table 3 were evaluated under the cultivation conditions shown in Table 4 (the maximum high temperature was 37 °C).

In a further assay the test system is rice. Nature of the assay: Example 5: rice pot test, seed weight and seed fertility under heat stress. Format: in vivo, cultivar Nipponbare. The note with it: PAA 10 μM; for fertile seed weight compared to water treatment (in words) / seed fertility compared to water treatment (in words) / total seed weight compared to water treatment (in words) / Fertile seed weight, relative value to heat treatment + water treatment group / Fertility (seed fertility), relative value to heat treatment + water treatment group / Total seed weight, relative value to heat treatment + water treatment group: Val 5 mM; for Fertile seed weight, relative value to heat treatment + water treatment group / Fertility (seed fertility), relative value to heat treatment + water treatment group / Total seed weight, relative value to heat treatment + water treatment group: heat treatment (38 °C), water = 100%. How it is done:
• Rice cultivar: Nipponbare
Prior to sowing, rice seeds were sterilized with 25% antiformin and 70% ethanol. Filter paper was placed in a Petri dish, and rice seeds were placed on the filter paper. The filter paper was sufficiently wetted with sterile water, and the rice seeds were germinated in a dark place at 25 °C. Six days after the sowing, the germinated rice seeds were planted in a cell tray. As the potting soil in the cell tray, a mixed soil of Kumiai Baido No. 1: vermiculite=7:3 (v/v) was used. The rice plants planted in the cell tray were cultivated in a chamber under the following conditions: 14 h/light period at 28 °C and 10 h/dark period at 22 °C.
On June 20, rice seedlings cultivated in the chamber for 18 days were transplanted to magnet pots, and cultivated until harvest in an outdoor cultivation water tank apparatus. In the magnet pots, 2.3 kg of a potting soil of Kumiai Baido No. 1: vermiculite=7:3 (v/v) was used, and two rice seedlings were transplanted to each pot. During the cultivation, water was appropriately managed. From one month after the transplantation, additional fertilizer was applied with ammonium sulfate and Hyponex three times at intervals of one week.
At the heading stage, one week after the start of heading of rice, material spraying and heat treatment were each performed twice at intervals of one week. The heat treatment was performed about 16 hours after the spraying of a material. Five pots were included in each treatment group as replicates. The material was diluted with water to prepare a treatment solution, and 0.1% spreading agent “Approach BI” (Kao Corporation) was added to the treatment solution, followed by spraying 60 mL per pot of the prepared aqueous material solution onto the whole plants. For the heat treatment, the rice plants were placed in a mini-house for 6 hours from 10:00 to 16:00, and the temperature was about 37 °C to 39 °C. After completion of the heat treatment, the plants were further cultivated, and on October 8, […] after transplanting to Wagner pots, an aboveground part of each plant was cut and harvested.
The cut aboveground parts of the plants, including seeds, were dried for 15 days, and the total seed weight, the fertile seed weight, and the seed fertility were examined. The fertile seed weight is the weight of seeds obtained by removing sterile seeds of empty husks using a threshing machine. From the total seeds, 10 mL of seeds (about 100 to 150 grains) was randomly taken out into a 50-mL Falcon tube, and fertile seeds and sterile seeds were separated from each other, followed by counting their numbers. The proportion (percentage) of the fertile seeds to the total number of seeds was defined as the seed fertility.

Another assay has as its system plants. The note with it: in vivo; cited from earlier work.

The source of these data is US20260344662A1, “METHOD FOR INDUCING HIGH-TEMPERATURE STRESS TOLERANCE IN PLANTS” (AJINOMOTO CO., INC., priority 2023, published 2026).

A value given as a limit tells only on which side of the number the result lay.

On to `O=C(O)Cc1c[nH]c2ccccc12` [IAA, indole-3-acetic acid], for which the “reversal of plant male sterility caused by high temperatures” value in assay [1] is reported as “function of reversing plant male sterility caused by high temperatures”. For the same compound, in the assay with SLAPX, the “expression of SLAPX compared to Mock (water)” value is on record as “no difference in expression”. In addition, the “expression of SLHsfA2 compared to Mock (water)” value in the assay on SLHsFA2 is listed as “no difference in expression”. Further, in the assay with tomato [2], the “number of tomato fruits compared to heat stress treatment+water treatment group” value was “markedly increased”.

Regarding `O=C(O)Cc1ccccc1` [PAA, phenylacetic acid], the “harvested fruit weight compared to water-sprayed heat stress group” value with tomato [3] is “exceeded the water-sprayed group”. Also, the “number of tomato fruits compared to heat stress treatment+water treatment group” value in the assay on tomato [4] is given as “no large difference”. In addition, the “expression of SLAPX compared to Mock (water)” value with SLAPX is on record as “no difference in expression”. Further, the “expression of SLHsfA2 compared to Mock (water)” value in the assay on SLHsFA2 is on record as “no difference in expression”. Moreover, in the assay on rice (Val 5 mM & PAA 10 μM, heat treatment), the “increase in seed fertility” value is reported as at least 20%. In addition, in the assay on rice (heat treatment), the “fertile seed weight compared to water treatment (in words)” value is “neither the treatment with Val alone nor the treatment with PAA alone showed significant differences”, the “seed fertility compared to water treatment (in words)” value was “increased the seed fertility” and the “total seed weight compared to water treatment (in words)” value is “neither the treatment with Val alone nor the treatment with PAA alone showed significant differences”. Besides, in the assay with rice, the “Fertile seed weight, relative value to heat treatment + water treatment group” value worked out at 105.6%; the “Fertility (seed fertility), relative value to heat treatment + water treatment group” value is 110.8%; the “Total seed weight, relative value to heat treatment + water treatment group” value is reported as 101.8%.

Turning to `CC(C)[C@H](N)C(=O)O` [Val, L-valine], the “harvested fruit weight compared to water-sprayed heat stress group” value with tomato [3] is listed as “exceeded the water-sprayed group”. The “number of tomato fruits compared to heat stress treatment+water treatment group” value in the assay with tomato [4] is reported as “no large difference”. Further, the “expression of SLAPX compared to Mock (water)” value with SLAPX is “no difference in expression”. Also, the “expression of SLHsfA2 compared to Mock (water)” value in the assay on SLHsFA2 is listed as “no difference in expression”. For the same compound, the “number of tomato fruits compared to heat stress treatment+water treatment group” value in the assay with tomato [2] was “markedly increased”. Further, the “induction of heat stress tolerance in plants” value with plants is “function of inducing heat stress tolerance in plants”. Further, in the assay with rice (heat treatment), the “fertile seed weight compared to water treatment (in words)” value was “neither the treatment with Val alone nor the treatment with PAA alone showed significant differences”, the “seed fertility compared to water treatment (in words)” value is recorded as “increased the seed fertility” and the “total seed weight compared to water treatment (in words)” value is listed as “neither the treatment with Val alone nor the treatment with PAA alone showed significant differences”. In addition, in the assay with rice, the “Fertile seed weight, relative value to heat treatment + water treatment group” value is 98.7%; the “Fertility (seed fertility), relative value to heat treatment + water treatment group” value worked out at 123.9%; the “Total seed weight, relative value to heat treatment + water treatment group” value amounted to 93.9%.
